Consider 2 compounds from ChEMBL document CHEMBL1155673, “Yanucamides A and B, two new depsipeptides from an assemblage of the marine cyanobacteria Lyngbya majuscula and Schizothrix species” (J Nat Prod, 2000).

The series relates to Artemia salina. Put plainly: Toxicity against Artemia salina after 24 hrs. The class given is organism-based. The note with it: in vivo.

The compound `C#CCCCC1OC(=O)CCNC(=O)[C@@H](Cc2ccccc2)N(C)C(=O)[C@H](C(C)C)OC(=O)[C@H](C(C)C)NC(=O)C1(C)C` (some centres not stated) [YANUCAMIDE A] yielded an LD50 of 5 ppm.
`C#CCCCC1OC(=O)CCNC(=O)[C@@H](Cc2ccccc2)N(C)C(=O)[C@H](C(C)C)OC(=O)[C@H]([C@H](C)CC)NC(=O)C1(C)C` (some centres not stated) [YANUCAMIDE B] displayed an LD50 of 5 ppm.
